Several values for one entry are separate records, joined by “and”; a condition that tells them apart may be missing. Equal entries are not always repeated. Inconclusive results and toxic doses are left out. No stated cut-off is given here; in the data, active means T/C of 150% or more; inactive means T/C below 125%.
Tested on: L1210 leukemia ip in BDF1 mice, survival T/C
Test: NCI In Vivo Anticancer Drug Screen. Data for tumor model L1210 Leukemia (intraperitoneal) in B6D2F1 (BDF1) mice
Conditions: endpoint: mean survival time, higher = longer survival
In short: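 Antitumor effect is assessed in tumor-bearing animals. Survival in the compound arm is compared with a vehicle-dosed control arm and expressed as their quotient.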

Measured: T/C

O=C(Nc1ccc(NC2=NCCN2)cc1)c1ccc(C(=O)Nc2ccc(NC3=NCCN3)cc2)cc1
inactive: dose: 0.25 mg/kg/injection, schedule: Q01DX001 (ip), vehicle: saline 109 % of control | dose: 0.3 mg/kg/injection, schedule: Q#A X Z (ip), vehicle: saline 116 % of control | dose: 0.45 mg/kg/injection, schedule: Q#A X Z (ip), vehicle: saline 122 % of control | dose: 0.5 mg/kg/injection, schedule: Q01DX001 (ip), vehicle: saline 110 % of control | dose: 0.5 mg/kg/injection, schedule: Q07DX Z (ip), vehicle: saline 97 % of control | dose: 0.63 mg/kg/injection, schedule: Q02DX004 (im), vehicle: saline 104 % of control | dose: 0.9 mg/kg/injection, schedule: Q01DX Z (ip), vehicle: methylcellulose (MC) 104 % of control | dose: 0.94 mg/kg/injection, schedule: Q01DX Z (ip), vehicle: saline 103 % of control | dose: 1.0 mg/kg/injection, schedule: Q01DX001 (ip), vehicle: saline 109 % of control | dose: 1.0 mg/kg/injection, schedule: Q07DX Z (ip), vehicle: saline 106 % of control | dose: 1.25 mg/kg/injection, schedule: Q01DX Z (ip), vehicle: methylcellulose (MC) 109 % of control | dose: 1.25 mg/kg/injection, schedule: Q02DX004 (im), vehicle: saline 101 % of control | dose: 1.3 mg/kg/injection, schedule: Q01DX Z (ip), vehicle: saline 120 % of control | dose: 1.3 mg/kg/injection, schedule: Q01DX Z (sc), vehicle: saline 93 % of control | dose: 1.8 mg/kg/injection, schedule: Q01DX Z (ip), vehicle: methylcellulose (MC) 116 % of control | dose: 2.0 mg/kg/injection, schedule: Q01DX001 (ip), vehicle: saline 113 % of control | dose: 2.0 mg/kg/injection, schedule: Q01DX Z (sc), vehicle: saline 101 % of control | dose: 2.0 mg/kg/injection, schedule: Q07DX Z (ip), vehicle: saline 103 % of control | dose: 2.5 mg/kg/injection, schedule: Q02DX004 (im), vehicle: saline 108 % of control | dose: 3.0 mg/kg/injection, schedule: Q01DX Z (sc), vehicle: saline 113 % of control | dose: 4.0 mg/kg/injection, schedule: Q01DX001 (ip), vehicle: saline 121 % of control | dose: 4.0 mg/kg/injection, schedule: Q03DX Z (ip), vehicle: saline 121 % of control | dose: 5.0 mg/kg/injection, schedule: Q02DX004 (im), vehicle: saline 106 % of control | dose: 8.0 mg/kg/injection, schedule: Q#A X Z (ip), vehicle: saline 110 % of control | dose: 10.0 mg/kg/injection, schedule: Q01DX001 (im), vehicle: steriod suspending solution 103 % of control | dose: 10.0 mg/kg/injection, schedule: Q01DX010 (sc), vehicle: olive oil, sesame oil, peanut oil 101 % of control and 118 % of control | dose: 12.0 mg/kg/injection, schedule: Q#A X Z (ip), vehicle: saline 112 % of control | dose: 18.0 mg/kg/injection, schedule: Q#A X Z (ip), vehicle: saline 109 % of control | dose: 20.0 mg/kg/injection, schedule: Q01DX010 (sc), vehicle: olive oil, sesame oil, peanut oil 87 % of control | dose: 24.0 mg/kg/injection, schedule: Q01DX Z (ip), vehicle: saline 120 % of control | dose: 24.0 mg/kg/injection, schedule: Q01DX Z (sc), vehicle: saline 113 % of control | dose: 30.0 mg/kg/injection, schedule: Q01DX Z (ip), vehicle: saline 114 % of control | dose: 36.0 mg/kg/injection, schedule: Q01DX Z (ip), vehicle: saline 96 % of control | dose: 40.0 mg/kg/injection, schedule: Q02DX004 (im), vehicle: olive oil, sesame oil, peanut oil 109 % of control and 110 % of control | dose: 60.0 mg/kg/injection, schedule: Q01DX Z (ip), vehicle: saline 103 % of control | dose: 64.0 mg/kg/injection, schedule: Q01DX010 (oral), vehicle: saline 108 % of control | dose: 75.0 mg/kg/injection, schedule: Q01DX Z (oral), vehicle: saline 95 % of control | dose: 80.0 mg/kg/injection, schedule: Q02DX004 (im), vehicle: olive oil, sesame oil, peanut oil 87 % of control | dose: 81.0 mg/kg/injection, schedule: Q01DX007 (iv), vehicle: saline 97 % of control | dose: 81.0 mg/kg/injection, schedule: Q01DX Z (ip), vehicle: saline 122 % of control | dose: 96.0 mg/kg/injection, schedule: Q01DX010 (oral), vehicle: saline 111 % of control | dose: 144.0 mg/kg/injection, schedule: Q01DX010 (oral), vehicle: saline 97 % of control and 119 % of control | dose: 150.0 mg/kg/injection, schedule: Q01DX Z (oral), vehicle: saline 101 % of control | dose: 576.0 mg/kg/injection, schedule: Q01DX001 (ip), vehicle: saline 110 % of control | dose: 576.0 mg/kg/injection, schedule: Q01DX010 (oral), vehicle: saline 116 % of control | dose: 600.0 mg/kg/injection, schedule: Q01DX Z (oral), vehicle: saline 122 % of control
active: dose: 1.0 mg/kg/injection, schedule: Q#A X Z (ip), vehicle: saline 180 % of control | dose: 1.5 mg/kg/injection, schedule: Q#A X Z (ip), vehicle: saline 191 % of control | dose: 1.88 mg/kg/injection, schedule: Q01DX Z (ip), vehicle: saline 200 % of control | dose: 2.0 mg/kg/injection, schedule: Q01DX Z (ip), vehicle: saline 177 % of control | dose: 2.5 mg/kg/injection, schedule: Q01DX Z (ip), vehicle: methylcellulose (MC) 150 % of control | dose: 3.0 mg/kg/injection, schedule: Q01DX Z (ip), vehicle: saline 239 % of control | dose: 3.75 mg/kg/injection, schedule: Q01DX Z (ip), vehicle: saline 264 % of control | dose: 5.0 mg/kg/injection, schedule: Q01DX Z (ip), vehicle: methylcellulose (MC) 293 % of control | dose: 6.0 mg/kg/injection, schedule: Q03DX Z (ip), vehicle: saline 161 % of control | dose: 6.0 mg/kg/injection, schedule: Q07DX Z (ip), vehicle: saline 198 % of control | dose: 7.5 mg/kg/injection, schedule: Q01DX Z (ip), vehicle: methylcellulose (MC) 268 % of control | dose: 7.5 mg/kg/injection, schedule: Q01DX Z (ip), vehicle: saline 265 % of control | dose: 9.0 mg/kg/injection, schedule: Q07DX Z (ip), vehicle: saline 154 % of control and 193 % of control | dose: 10.0 mg/kg/injection, schedule: Q01DX Z (ip), vehicle: methylcellulose (MC) 200 % of control | dose: 10.0 mg/kg/injection, schedule: Q02DX004 (im), vehicle: olive oil, sesame oil, peanut oil 153 % of control | dose: 14.0 mg/kg/injection, schedule: Q07DX Z (ip), vehicle: saline 152 % of control | dose: 15.0 mg/kg/injection, schedule: Q01DX Z (ip), vehicle: methylcellulose (MC) 184 % of control | dose: 15.0 mg/kg/injection, schedule: Q01DX Z (ip), vehicle: saline 161 % of control | dose: 16.0 mg/kg/injection, schedule: Q01DX001 (ip), vehicle: saline 155 % of control | dose: 16.0 mg/kg/injection, schedule: Q01DX Z (sc), vehicle: saline 152 % of control | dose: 18.0 mg/kg/injection, schedule: Q01DX001 (ip), vehicle: other 172 % of control | dose: 20.0 mg/kg/injection, schedule: Q02DX004 (im), vehicle: olive oil, sesame oil, peanut oil 175 % of control and 196 % of control | dose: 21.0 mg/kg/injection, schedule: Q07DX Z (ip), vehicle: saline 184 % of control | dose: 24.0 mg/kg/injection, schedule: Q01DX007 (iv), vehicle: saline 174 % of control | dose: 26.0 mg/kg/injection, schedule: Q01DX001 (ip), vehicle: carboxymethylcellulose (CMC) 210 % of control | dose: 26.0 mg/kg/injection, schedule: Q01DX001 (ip), vehicle: other 154 % of control and 200 % of control | dose: 36.0 mg/kg/injection, schedule: Q01DX007 (iv), vehicle: saline 210 % of control | dose: 40.0 mg/kg/injection, schedule: Q01DX001 (im), vehicle: steriod suspending solution 176 % of control | dose: 40.0 mg/kg/injection, schedule: Q01DX001 (ip), vehicle: carboxymethylcellulose (CMC) 194 % of control and 206 % of control | dose: 40.0 mg/kg/injection, schedule: Q01DX001 (ip), vehicle: other 198 % of control and 201 % of control | dose: 54.0 mg/kg/injection, schedule: Q01DX007 (iv), vehicle: saline 233 % of control | dose: 60.0 mg/kg/injection, schedule: Q01DX001 (ip), vehicle: carboxymethylcellulose (CMC) 251 % of control and 296 % of control | dose: 60.0 mg/kg/injection, schedule: Q01DX001 (ip), vehicle: other 224 % of control and 297 % of control | dose: 72.0 mg/kg/injection, schedule: Q01DX001 (ip), vehicle: saline 215 % of control and 232 % of control and 264 % of control | dose: 80.0 mg/kg/injection, schedule: Q01DX001 (im), vehicle: saline 213 % of control | dose: 80.0 mg/kg/injection, schedule: Q01DX001 (im), vehicle: steriod suspending solution 211 % of control | dose: 90.0 mg/kg/injection, schedule: Q01DX001 (ip), vehicle: carboxymethylcellulose (CMC) 244 % of control | dose: 90.0 mg/kg/injection, schedule: Q01DX001 (ip), vehicle: other 265 % of control | dose: 160.0 mg/kg/injection, schedule: Q01DX001 (im), vehicle: saline 243 % of control | dose: 320.0 mg/kg/injection, schedule: Q01DX001 (im), vehicle: saline 271 % of control

From PubChem BioAssay AID248 (DTP/NCI, 2004)
